The nature of assay [1]: Reaction rate constant of the compound.
The nature of assay [2]: Krel expressed as Ki with respect to Ktrolox.

The compound `Cl.Oc1ccc(-c2cn3c(O)c(-c4ccccc4)nc3cn2)cc1` yielded a reaction rate constant in assay [1] of 105000 M⁻¹ s⁻¹. Also, in assay [2], the Krel was determined as 6.2.

As to `Cc1nc2cnccn2c1O.Cl`, the reaction rate constant in assay [1] turned out to be 60000 M⁻¹ s⁻¹. In assay [2], this compound displayed a Krel of 3.5.

`Cc1c(C)c2c(c(C)c1O)CCC(C)(C(=O)O)O2` (stereo unspecified) [TROLOX] registered a reaction rate constant in assay [1] of 17000 M⁻¹ s⁻¹. The compound also had a Krel in assay [2] of 1.

The compound `Cl.Oc1c(Cc2ccccc2)nc2cnccn12` registered a reaction rate constant in assay [1] of 28000 M⁻¹ s⁻¹. The same compound had a Krel in assay [2] of 1.6.

Compound `COc1ccc(-c2cn3c(O)c(C)nc3cn2)cc1.Cl` gave a reaction rate constant in assay [1] of 280000 M⁻¹ s⁻¹. The same compound showed a Krel in assay [2] of 16.5.

Regarding `Cl.Oc1c(-c2ccccc2)nc2cnccn12`, the reaction rate constant in assay [1] turned out to be 84000 M⁻¹ s⁻¹. The compound further had a Krel in assay [2] of 4.9.

`Cl.Oc1c(Cc2ccccc2)nc2cnc(-c3ccccc3)cn12` gave a reaction rate constant in assay [1] of 65000 M⁻¹ s⁻¹. Besides, the Krel in assay [2] was found to be 3.8.

As to `Cc1nc2cnc(-c3ccccc3)cn2c1O.Cl`, the reaction rate constant in assay [1] was 170000 M⁻¹ s⁻¹. This compound also showed a Krel in assay [2] of 10.

Compound `Cc1nc2cnc(-c3ccc(O)cc3)cn2c1O.Cl` returned a reaction rate constant in assay [1] of 210000 M⁻¹ s⁻¹. Also, in assay [2], the Krel amounted to 12.3.

In assay [1], `COc1ccc(-c2cn3c(O)c(Cc4ccccc4)nc3cn2)cc1.Cl` gave a reaction rate constant of 160000 M⁻¹ s⁻¹. Further, the Krel in assay [2] was 9.4.

`Oc1ccc(Cc2nc3c(Cc4ccccc4)nc(-c4ccc(O)cc4)cn3c2O)cc1` [COELENTERAZINE]: in assay [1], the reaction rate constant was 120000 M⁻¹ s⁻¹. In addition, the Krel in assay [2] worked out at 7.1.

In assay [1], `COc1ccc(-c2cn3c(O)c(Cc4ccc(O)cc4)nc3c(Cc3ccccc3)n2)cc1` registered a reaction rate constant of 96000 M⁻¹ s⁻¹. Further, the Krel in assay [2] was found to be 5.6.

In the case of `Cl.Oc1ccc(-c2cn3c(O)c(Cc4ccccc4)nc3cn2)cc1`, the reaction rate constant in assay [1] was 33000 M⁻¹ s⁻¹. The Krel in assay [2] was 1.9.

The values above are taken from ChEMBL document CHEMBL1133933, “Imidazolopyrazinones as potential antioxidants” (Bioorg Med Chem Lett, 2001).
